What all share (format): cell-based, Rat
Test [1] has as its system FRT G542X cells. The test is described as follows: Transepithelial chloride conductance (TECC) assay in FRT G542X cells. On the procedure: (§1) Stably transfected FRT cells as described herein cells were seeded onto Costar 24-well […] permeable supports at a density of ˜2×10^6 cells/filter and maintained at 37° C. with 5% CO2. Transepithelial resistance was assessed using an epithelial voltmeter to ensure the formation of tight monolayers, as defined by resistance >6 kcm^2. During initial evaluation of agents, cells were treated with compounds (10 μM), vehicle control (0.3% DMSO), or positive control (250 μg/mL G418) for 48 hours before transepithelial conductance (Gt) was assessed; subsequent studies used other concentrations of compounds. Measurements were taken at baseline, after the addition of 20 μM forskolin (FSK, a cAMP agonist that stimulates CFTR activity) and 10 μM CFTRInh-172 (a CFTR-specific inhibitor).
In the TECC assay, FRT G542X cells were treated with a single dose (10 μM) of each compound. FRT G542X cells were incubated for 48 hours with the compounds prior or vehicle control (0.3% DMSO). During the assay the baseline conductance (Gt) was initially determined prior to the acute addition of forskolin (20 μM) and VX-770 (10 μM) to stimulate CFTR activity; the CFTR inhibitor, CFTRInh-172 (10 μM), was added to inhibit CFTR activity at the end of the assay. In these experiments, an increase in CFTR conductance indicates the compounds stimulated read-through of the PTC in the constructs tested and that the CFTR was functional.
To prioritize which of the 48 read-through-positive compounds identified would be most efficacious in augmenting PTC read-through and restoring protein function, the TECC assay was repeated (in triplicate) using FRT G542X cells and FRT cells without CFTR (parental cells). Compounds (10 μM) or vehicle control (0.3% DMSO) were incubated for 48 hours with the cells. During the assay the baseline conductance (Gt) was initially determined prior to the acute addition of forskolin (20 μM) and VX-770 (10 μM) to stimulate CFTR activity; the CFTR inhibitor, CFTRInh-172 (10 μM), was added to inhibit CFTR activity at the end of the assay. G418 (250 μg/ml) was used as a positive control. In this assay, an increase in CFTR conductance indicates the compound stimulated read-through of the PTC in the constructs tested and that the CFTR was functional. The 48 compounds tested are provided in the Table 1 below (with the numerical designations corresponding to those shown in FIG. 4).
A series of functional assays was performed to evaluate the efficacy of these lead compounds in greater detail. Using FRT G542X cells, the optimal dose of each compound in augmenting chloride conductance (FIG. 5A) was determined. FRT G542X cells were incubated with compound (1 μM to 30 μM), G418 (250 μg/mL) or vehicle control (0.3% DMSO) for 48 hours. The conductance assay was conducted as described in Example 2 above. In this assay, an increase in CFTR conductance indicates the compounds stimulated read-through of the PTC in the constructs tested and that the CFTR was functional.

In test [2] the test system is FRT wild-type CFTR control cells. The test is described as follows: Firefly luciferase reporter assay, wild-type control. The settings on record: 300 to 500 μg/ml, 24 hours. On the procedure: The luciferase assay was performed on a Pharmakon 1600 library to determine the efficacy of each compound in promoting read-through. 5 ul of each compound as a DMSO stock solution were dissolved in F-12 Ham medium and dispensed into separate wells of 384-well plates (Corning) using a BioMek FX. FRT cells (10,000 cells/well) containing the reporter gene construct (QXN UGAC) were then added using the Matrix WellMate. The plates were incubated for 24 hours at 37° C., 5% CO2, and 95% humidity, after which firefly luciferase activity was determined by equilibrating the plates to room temperature, adding an equal volume of Promega BrightGlo (Promega), and reading enhanced luminescence with an Envision Plate Reader (PerkinElmer) within 5 minutes. […]
To validate these cell lines, the cell lines were treated with G418, a read-through agent with established efficacy in vitro (Bedwell D M, et al.; Nat Med; 3:1280-1284; 1997), at doses up to from 300 to 500 μg/ml. An increase in luciferase activity indicates G418 stimulated read-through of the PTC in the constructs tested. […] For screening purposes, firefly luciferase levels were measured without assessment of Renilla expression as an indication of total construct expression.

The subject of test [3] is FRT W1282X cells. In words: Transepithelial chloride conductance assay in FRT W1282X cells. The conditions noted are these: 48 hours; escin 10 μM, G418 250 μg/ml, VX-770 10 μM, VX-809 6 μM, NMDI-14 20 μg/ml, tobramycin 150, gentamicin 250 μg/ml. On the procedure:
as §1
Individual assays were performed as described herein.
As previously reported in the literature, the combination of CFTR correctors (such as VX-809) and CFTR potentiators (such as VX-770) act synergistically to improve CFTR function. […] Compounds alone or in the indicated combination were pre-incubated with FRT W1282X cells for 48 hours. During the assay the baseline conductance (Gt) was initially determined prior to the acute addition of forskolin (20 μM) and VX-770 (10 μM) to stimulate CFTR activity; the CFTR inhibitor, CFTRInh-172 (10 μM), was added to inhibit CFTR activity at the end of the assay. Enhancement of PTC read-through by the compounds of the present disclosure was determined by an increase in CFTR conductance. CFTR conductance also indicated the CFTR was functional as a result of the read-through of the PTC.
Compounds alone or in the indicated combination were pre-incubated with FRT G542X cells for 48 hours. […] Enhancement of PTC read-through by the compounds of the present disclosure was determined by an increase in CFTR conductance. CFTR conductance also indicated the CFTR was functional as a result of the read-through of the PTC.
It has been reported that aminoglycosides interfere with the action read-through stimulating compound. […] CFTR conductance also indicated the CFTR was functional as a result of the read-through of the PTC.
Stimulation of CFTR activity was determined by an increase in CFTR conductance. […] During the assay the baseline conductance (Gt) was initially determined prior to the acute addition of forskolin (20 μM) and GP-5 (10 μM) to stimulate CFTR activity; the CFTR inhibitor, […] (10 μM), was added to inhibit CFTR activity at the end of the assay.
The effect of the read-through stimulating compounds of the present disclosure in combination with the CFTR corrector VX-809 was further examined in FRT cells with the G542X, Y122X and W1282X mutations. […] CFTR conductance also indicated the CFTR was functional as a result of the read-through of the PTC.

A value given as a limit tells only on which side of the number the result lay.

As for `CN[C@@H]1[C@@H](O)[C@@H](O[C@@H]2[C@@H](O)[C@H](O[C@H]3O[C@H]([C@@H](C)O)[C@@H](O)[C@H](O)[C@H]3N)[C@@H](N)C[C@H]2N)OC[C@]1(C)O` [G418, geneticin], in test [1] (250 μg/ml, 0 to 72 hours), the “incubation time of maximal effect on forskolin-induced conductance” value was 72 h. Further, the “signal intensity at 48 hrs pre-incubation” value in test [1] (250 μg/ml, relative to maximal effect at 72 hrs) was more than 75%. Moreover, in test [2], the “firefly luciferase activity compared to DMSO-treated vehicle” value was “no significant effect”.

Regarding `NC[C@H]1O[C@H](O[C@H]2[C@H](O)[C@@H](O[C@H]3O[C@H](CO)[C@@H](O)[C@H](N)[C@H]3O)[C@H](N)C[C@@H]2N)[C@H](N)C[C@@H]1O` [tobramycin], the “CFTR function (conductance) in presence of forskolin and VX-770” value (“CFTR function … of forskolin and VX-770” for short) in test [3] was “did not stimulate CFTR function”.

For `CCOC(=O)c1c(NC(=O)CC2Nc3cc(C)c(C)cc3NC2=O)sc(C)c1C` (stereo not shown) [NMDI-14], in test [1] (48 hours, escin 10 μM, NMDI-1 80 μg/ml, NMDI-14 20 μg/ml), the “CFTR function (conductance) in presence of VX-770 and forskolin” value is listed as “significantly increased”. Further, the “CFTR function … of forskolin and VX-770” value in test [3] is “significantly increased”.

Consider gentamicin, for which the “CFTR function … of forskolin and VX-770” value in test [3] was “did not stimulate CFTR function”.

The record behind these values is patent US10960018B2, “Methods and compounds for stimulating read-through of premature termination codons” (The UAB Research Foundation, priority 2016, dated 2021).
